US8946226B2, “Use of CDK inhibitor for the treatment of glioma” (Nerviano Medical Sciences S.r.l., priority 2008, dated 2015)

Key:
[1] = Levels of compound in brain and plasma by LC/MS/MS; assay type: in vivo, Han Wistar rats; conditions: rat; for Brain levels: average
Method: The animals were sacrificed on day 6 at 2 and 6 hours after dosing. Brain and plasma were taken at the sacrifice time. Blood was put in heparinised plastic tubes, kept in ice-water bath, and then centrifuged (10 minutes, 1200 g at 4° C.). Brain and plasma samples were stored in a freezer at −80° C. until analysis. The levels of compound of formula (I) were analysed by LC/MS/MS.

[2] = Radioactivity distribution in brain by autoradioluminography, plasma by LSC; assay type: in vivo, Sprague Dawley rats; conditions: 14C-labelled, single oral 20 mg/kg as maleate salt, rat
Method: Animals were sacrificed 2, 6 and 24 hours after administration (2 animals at each selected time) and the radioactivity distribution of compound-related material was evaluated in intact brain, after excision. The autoradioluminography method was used to evaluate the quantitative radioactivity distribution in the brain.
The radioactivity distribution was also evaluated in blood and plasma collected from the animals after sacrifice. The radioactivity levels in blood and plasma were determined by Liquid Scintillation Counting (LSC).

SF268 [3] = experiment: Inhibition of cell proliferation (cellular ATP monitoring); assay type: cell-based; conditions: Homo sapiens, SF-268; SF268, 72 hours
Method: (§1) SF-268, SF-295, SF-539 and U251 cell lines were cultured in RPMI 1640 added with 10% FCS and 2 mM glutamine and U-87MG cell line was cultured in EMEM added with 10% FCS, […] and 1% NEAA. For all the experiments cells were seeded at the density of 1×10^4/cm^2, the day after treatment with the compound for the prescribed duration and then collected at the reported times.
(§2) Cells were washed and counted 72 hours after the treatment. Cell proliferation was determined by a cellular adenosine triphosphate monitoring system. Cell proliferation was compared to control cells. The concentration inhibiting cell proliferation by 50% (IC50) was calculated.

SF295 [4] = experiment: as above; assay type: cell-based; conditions: Homo sapiens, SF-295; SF295, 72 hours
Method: as §1, §2

SF539 [5] = experiment: as above; assay type: cell-based; conditions: Homo sapiens, SF-539; SF539, 72 hours
Method: as §1, §2

U251 [6] = experiment: as above; assay type: cell-based; conditions: Homo sapiens, U-251; U251, 72 hours
Method: as §1, §2

U87MG [7] = experiment: as above; assay type: cell-based; conditions: Homo sapiens, U-87 MG, 72 hours
Method: as §1, §2

U251 [8] = experiment: Analysis of BrdU incorporation (FACS); assay type: cell-based, human; conditions: U251, 24 hour-treatment
Method: as §1
(§3) BrdU (5-bromo-2′ deoxyuridine) was added to the cell culture at the final concentration of 30 μM for the last hour of a 24 hour-treatment. Cells were washed with PBS, fixed in 70% ethanol and stored at −20° C. At the moment of the analysis cells were centrifuged, washed with 1% FCS in PBS and DNA denaturated with HCl 2N for 20 minutes. After a wash in Na2B4O7 0.1M pH 8.5, cells were incubated with a solution of 0.5% Tween20 in PBS+1% FCS for 15 minutes and then centrifuged. The pellets were resuspended in 150 μl of a 1:10 diluted unconjugated anti-BrdU monoclonal antibody (Becton Dickinson) and incubated for 1 hour at room temperature. After a wash in PBS, the incubation with 0.5% Tween20 was repeated; then the secondary antibody was added (1:50 diluted FITC-conjugated goat anti mouse immunoglobulin (Jackson Lab.)). After one hour at room temperature the cells were rinsed again, counterstained with propidium iodide (2 μg/ml+12.5 μg/ml DNAse-free RNAse) overnight, then analyzed by FACS.

SF268 [9] = experiment: Analysis of BrdU incorporation (FACS); assay type: cell-based; conditions: SF268, 24 hour-treatment
Method: as §1, §3

SF295 [10] = experiment: Analysis of BrdU incorporation (FACS); assay type: cell-based; conditions: SF295, 24 hour-treatment
Method: as §1, §3

SF539 [11] = experiment: Analysis of BrdU incorporation (FACS); assay type: cell-based; conditions: SF539, 24 hour-treatment
Method: as §1, §3

U87MG [12] = experiment: Analysis of BrdU incorporation (FACS); assay type: cell-based; conditions: 24 hour-treatment
Method: as §1, §3

U251 [13] = experiment: Acridine orange staining to evaluate autophagy (FACS); assay type: cell-based, human; conditions: U251, 3 μM
Method: as §1
(§4) During the last 15 minutes of incubation, acridine orange (1 μg/ml) was added to the cells that were then collected, washed with PBS and analyzed by FACS for their fluorescence emission. Acridine orange moves freely to cross biological membranes but, when in the cytoplasm and nucleolus, fluoresces bright green and dim red; in the acidic vacuoles generated by autophagy appears bright red.

SF268 [14] = experiment: as above; assay type: cell-based; conditions: SF268, 3 μM
Method: as §1, §4

SF295 [15] = experiment: as above; assay type: cell-based; conditions: SF295, 3 μM
Method: as §1, §4

SF539 [16] = experiment: as above; assay type: cell-based; conditions: SF539, 6 μM
Method: as §1, §4

U87MG [17] = experiment: as above; assay type: cell-based; conditions: 3 μM
Method: as §1, §4

[18] = system: all the tested glioma cells; experiment: Inhibition of cell proliferation, summary over cell lines; assay type: cell-based; conditions: 72 hours, read-out: IC50 (inhibit proliferation), range over cell lines
Method: as §1, §2

[19] = system: all the tested glioma cells; experiment: Acridine orange staining to evaluate autophagy, summary over cell lines; assay type: cell-based
Method: as §1, §4

U251 cells [20] = experiment: Mode of action by Western blot analysis; assay type: cell-based, human; conditions: U251 cells treated for 24 hours, 1 and 3 μM, FIG. 1
Method: (§5) Treated cells were lysed by adding SDS sample buffer (0.125M Tris-HCl pH6.8, 5% SDS). Samples were heated to 95° C. for 5 minutes and then sonicated using an Ultrasonic 2000 ARTEK. Lysed cells were centrifuged at 13,000 RPM for 10 minutes. Protein quantification was determined using BCA buffer (Pierce) and a BSA standard curve. 20 μg protein extract per well were loaded and separated by SDS-PAGE gel 7.5-10% (PAGE-PLUS 40% concentrate AMRESCO). The gel was blotted onto nitrocellulose filters (Hybond Amersham) in a buffer containing 25 mM Tris HCl pH 8.3, 192 mM Glycine and 20% methanol. The filters were saturated in 5% low-fat milk in TBS containing 0.1% Tween 20 (TBS-T) for 2 hours at room temperature and than incubated overnight at 4° C. with the primary monoclonal followed by washes in TBS-T and incubation using a secondary anti mouse antibody. The bands were visualized using the “Super Signal West Pico” Pierce.

SF-539 cells = experiment: Mode of action by Western blot analysis; assay type: cell-based; conditions: SF-539 cells treated for 6 hours, 3 μM, FIG. 2
Method: as §5

all glioma cell lines = experiment: Mode of action by Western blot analysis; assay type: cell-based; conditions: independently from the status of Rb pathway
Method: as §5

U251 human glioma cells = assay type: in vivo
Method: Balb, Nu/Nu male mice, from Harlan (Italy), were maintained in cages with paper filter cover, food and bedding sterilized and water acidified. 2.5×10^6 U251 human glioma cells (from the American Type Culture Collection) were injected subcutaneously in athymic mice. […] Tumor growth and body weight were measured every 3 days. Tumor growth was assessed by caliper. The two diameters were recorded and the tumor weight was calculated according the following formula: length (mm)×width^2/2. Toxicity was evaluated on the basis of body weight reduction.

U251 cells [21] = experiment: Efficacy on intracranially implanted glioma tumor model; assay type: in vivo, Athymic male nude mice; conditions: 40 mg/kg bid OS, FIG. 3
Method: Animals that underwent surgical procedures were anesthetized following one of the above mentioned protocols, i.e. Ketamin, 80-100 mg/kg i.p.+Xilazin: 10 mg/kg i.p.; Isofluorane: 1.5-2%. Athymic male nude mice, aged 6-8 weeks were anesthetized, placed under the stereotaxic apparatus and gently fixed with ear bars and into the head holder. Skin of the head was cut longitudinally (parallel to ears) and skull of the mouse discovered. With the X and Y axis controller of the apparatus, bregma (interception between median sagittal and anterior coronal sutures to perform injection into the cerebral nuclei) and lambda (interception between median sagittal suture and posterior coronal suture to perform injection into the cerebellum) were identified as point 0. The following coordinates were set in the apparatus and the point of injection identified. With a microdrill a small hole was done in the desired point. Cells were aspirated with the Hamilton syringe (usually […]) just prior injection (a short mix of cells before aspiration was performed to avoid precipitation of cells). By pointing to the hole, Z axis was fixed to 0 and syringe gently inserted into the brain until reaching the right coordinate (−3.0 mm depth). U251 cells were injected at the speed of 1 μl per minute. […] After the end of the surgery mice were monitored for recovery until complete wakening.

## CNC(=O)c1nn(C)c2c1C(C)(C)Cc1cnc(Nc3ccc(N4CCN(C)CC4)cc3)nc1-2 [compound of formula (I), 8-[4-(4-methyl-piperazin-1-yl)-phenylamino]-1,4,4-trimethyl-4,5-dihydro-1H-pyrazolo[4,3-h]quinazoline-3-carboxylic acid methylamide]
[1]; Han Wistar, brain/plasma, oral 60 mg/kg for 6 days, assuming a density equal to 1, read-out: brain levels times higher than plasma levels
  Kp: 6.1 to 9.6
[1]; Han Wistar, plasma, oral 60 mg/kg for 6 consecutive days, day 6, 2 hours post-dosing
  concentration at 2 h: 9.8 µM
[1]; Han Wistar, plasma, oral 60 mg/kg for 6 consecutive days, day 6, 6 hours post-dosing
  concentration at 6 h: 8.4 µM
[1]; oral 60 mg/kg for 6 consecutive days, day 6, 2 hours post-dosing
  Brain levels: 88.9 nmoles/gr of tissue
[1]; oral 60 mg/kg for 6 consecutive days, day 6, 6 hours post-dosing
  Brain levels: 69.4 nmoles/gr of tissue
[2]; 2 h
  Brain (total radioactivity): 4.6 μg eq/g
  Cerebellum (total radioactivity): 4.4 μg eq/g
  Plasma (total radioactivity): 1.43 μg eq/g
[2]; 6 h
  Brain (total radioactivity): 1.4 μg eq/g
  Cerebellum (total radioactivity): 1.5 μg eq/g
  Plasma (total radioactivity): 0.89 μg eq/g
[2]; 24 h
  Brain (total radioactivity): 0.4 μg eq/g
  Cerebellum (total radioactivity): 0.4 μg eq/g
  Plasma (total radioactivity): 0.14 μg eq/g
SF268 [3]
  IC50: 2500 nM
SF295 [4]
  IC50: 5400 nM
SF539 [5]
  IC50: 1400 nM
U251 [6]
  IC50: 2800 nM
U87MG [7]
  IC50: 1600 nM
U251 [8]
  % BrdU inhib: 74%
SF268 [9]
  % BrdU inhib: 78%
SF295 [10]
  % BrdU inhib: 74%
SF539 [11]
  % BrdU inhib: 39%
U87MG [12]
  % BrdU inhib: 92%
U251 [13]
  Autophagy %: 58 (3 μM) %
SF268 [14]
  Autophagy %: 70 (3 μM) %
SF295 [15]
  Autophagy %: 68 (3 μM) %
SF539 [16]
  Autophagy %: 35 (6 μM) %
U87MG [17]
  Autophagy %: 50 (3 μM) %
[18]
  IC50: 1400 to 5400 nM
[19]
  induce autophagy, % of the cells, range over cell lines: 36-70%
U251 cells [20]
  Rb phosphorylation: strong inhibition
  cdc6 expression: strong inhibition
  cyclin A expression: strong inhibition
  cyclin B1 expression: strong inhibition
SF-539 cells
  phosphorylation of TRKA receptor: Inhibition
  phosphorylation of downstream proteins, both in the MAPK and in AKT pathway: Inhibition
All glioma cell lines
  cell cycle related markers: decrease
U251 human glioma cells; U251 subcutaneous xenograft, oral 40 mg/kg BID for 10 consecutive days
  Max tumor growth inhibition (%): 80%
U251 human glioma cells; male, Balb Nu/Nu, mouse, in vivo, po, 40 mg/kg, 10 days
  Toxicity: 0/8
U251 cells [21]
  increase in the survival time in comparison to vehicle-treated control mice: 30%
